The first experiment addresses T1, human histamine H3 receptor (Homo sapiens, UniProt Q9Y5N1).
T1 construct: One microgram of supercoiled H3 receptor cDNA was added to the cells and mixed; expressed in transfected cells; membranes
As to the kind of experiment: [3H]-N-methylhistamine binding. As to conditions: Table 1; [3H]-N-methylhistamine binding. Here is the method: Thus in the present invention receptor binding was determined using the human histamine H3 receptor (See Lovenberg et al Mol. Pharmacol. 1999, 1107). Screening using the human receptor is particularly important for the identification of new therapies for the treatment of human disease. Conventional binding assays for example are determined using rat synaptosomes (Garbarg et al J. Pharmacol. Exp. Ther. 1992, 263, 304), rat cortical membranes (West et al Mol. Pharmacol. 1990, 610), and guinea pig brain (Korte et al Biochem. Biophys. Res. Commun. 1990, 978). Only limited studies have been performed previously using human tissue but these allude to significant differences in the pharmacology of rodent and primate receptors (West et al Eur. J. Pharmacol. 1999, 233).
Transfection of Cells with Human Histamine Receptor
A 10 cm tissue culture dish with a confluent monolayer of SK-N-MC cells was split two days prior to transfection. Using sterile technique the media was removed and the cells were detached from the dish by the addition of trypsin. One fifth of the cells were then placed onto a new 10 cm dish. Cells were grown in a 37° C. incubator with 5% CO2 in Minimal Essential Media Eagle with 10% Fetal Bovine Serum. After two days cells were approximately 80% confluent. These were removed from the dish with trypsin and pelleted in a clinical centrifuge. The pellet was then re-suspended in 400 μL complete media and transferred to an electroporation cuvette with a 0.4 cm gap between the electrodes (Bio-Rad #165-2088). One microgram of supercoiled H3 receptor cDNA was added to the cells and mixed. The voltage for the electroporation was set at 0.25 kV, the capacitance was set at 960 μF. After electroporation the cells were diluted into 10 mL complete media and plated onto four 10 cm dishes. Because of the variability in the efficiency of electroporation, four different concentrations of cells were plated. The ratios used were; 1:20, 1:10, 1:5, with the remainder of the cells being added to the fourth dish. The cells were allowed to recover for 24 hours before adding the selection media (complete media with 600 μg/mL G418). After 10 days dishes were analyzed for surviving colonies of cells. Dishes with well isolated colonies were used. Cells from individual colonies were isolated and tested. SK-N-MC cells were used because they give efficient coupling for inhibition of adenylate cyclase. The clones that gave the most robust inhibition of adenylate cyclase in response to histamine were used for further study.
[^3H]-N-methylhistamine Binding
Cell pellets from histamine H3 receptor-expressing SK-N-MC cells were homogenized in 20 mM TrisHCl/0.5 mM EDTA. Supernatants from a 800 g spin were collected, recentrifuged at 30,000 g for 30 minutes. Pellets were re-homogenized in 50 mM Tris/5 mM EDTA (pH 7.4). Membranes were incubated with 0.8 nM [^3H]-N-methylhistamine plus/minus test compounds for 45 min at 25° C. and harvested by rapid filtration over GF/C glass fiber filters (pretreated with 0.3% polyethylenimine) followed by four washes with ice cold buffer. Filters were dried, added to 4 mL scintillation cocktail and then counted on a liquid scintillation counter. Non-specific binding was defined with 10 μM histamine. The pKi values were calculated based on a Kd of 800 pM and a ligand concentration ([L]) of 800 pM according to the formula: Ki=(IC50)/(1+([L]/(Kd))
T1 sequence (Q9Y5N1 whole entry): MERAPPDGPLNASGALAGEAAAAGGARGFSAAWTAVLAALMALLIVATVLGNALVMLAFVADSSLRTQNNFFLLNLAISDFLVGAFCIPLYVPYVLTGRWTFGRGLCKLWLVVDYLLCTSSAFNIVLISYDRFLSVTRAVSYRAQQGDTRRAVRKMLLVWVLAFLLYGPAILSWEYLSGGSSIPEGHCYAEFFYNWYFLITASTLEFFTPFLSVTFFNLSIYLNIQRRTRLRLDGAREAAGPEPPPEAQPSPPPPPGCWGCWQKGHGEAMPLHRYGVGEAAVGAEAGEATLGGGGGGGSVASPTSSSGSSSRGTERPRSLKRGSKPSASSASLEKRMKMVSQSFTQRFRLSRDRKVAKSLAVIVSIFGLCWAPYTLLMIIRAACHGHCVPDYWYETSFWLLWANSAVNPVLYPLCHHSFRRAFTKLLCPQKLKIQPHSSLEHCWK
On to `c1cc([C@H]2CC[C@H]3CCCCN32)ccc1OCCN1CCCCC1` (racemic) [Example 16, 3-[4-(2-Piperidin-1-yl-ethoxy)-phenyl]-octahydro-indolizine], for which the inhibition constant Ki (usually a dissociation constant, usually derived from enzyme kinetics or from competition with a known ligand) turned out to be 0.009 µM.

The experiment is the same for the next values; noted with them: Table 2; [3H]-N-methylhistamine binding.
Consider `O=c1[nH]c(Sc2ccc([C@H]3CC[C@H]4CCCCN43)cc2)nc2ccccc12` (racemic) [Example 33], for which the Ki came out at 0.163 µM. That is a sub-micromolar value. The molecule `c1ccc2[nH]c(Oc3ccc([C@H]4CC[C@H]5CCCCN54)cc3)nc2c1` (racemic) [Example 30] displayed a Ki of 0.49 µM. This Ki is about 3-fold higher than that of the molecule before.

The experiment is the same for the next values; noted with them: Table 3; [3H]-N-methylhistamine binding.
`O=Cc1ccc(-c2ccc([C@H]3CC[C@H]4CCCCN43)cc2)cc1` (racemic) [Example 52] registered an inhibition constant (Ki) of 0.221 µM. On the same count and under the same terms, the figure for `Fc1ccc(-c2ccc([C@H]3CC[C@H]4CCCCN43)cc2)cc1` (racemic) [Example 53] is 0.415 µM. On to `c1cc(-c2ccc([C@H]3CC[C@H]4CCCCN43)cc2)cs1` (racemic) [Example 49], for which affinity was put at a Ki of 0.503 µM.

The experiment is the same for the next values; noted with them: Table 5; [3H]-N-methylhistamine binding.
In turn, `c1ccc(CN(Cc2ccccc2)c2ccc([C@H]3CC[C@H]4CCCCN43)cc2)cc1` (racemic) [Example 135] came in with a Ki of 3.95 µM.

In the case of `c1cncc(CNc2ccc([C@H]3CC[C@H]4CCCCN43)cc2)c1` (racemic) [Example 127], the Ki came out at 0.589 µM.

The experiment is the same for the next values; noted with them: [3H]-N-methylhistamine 0.8 nM, membranes of H3 receptor-expressing SK-N-MC cells.
Molecule `C=CC(=O)N(C)c1ccc([C@@H]2CC[C@@H]3CCCCN32)cc1` (relative stereo) [Example 108, N-Methyl-N-[4-(trans-Octahydro-3-indolizinyl)phenyl]propenamide] returned a Ki of 2.77 µM. Still for that read-out and setting: for `c1cc([C@@H]2CCC[C@@H]3CCCN32)ccc1OCCCN1CCCCC1` (racemic) [Example 64, 5-[4-(3-Piperidinylpropoxy)phenyl]octahydroindolizine] the value was 0.0007 µM. For the molecule `c1cc(Sc2ccc(C3CCCC4CCCCN43)cc2)ccn1` (stereo not shown) [Example 25, 4-[4-(4-Pyridylthio)phenyl]octahydoquinolizine], affinity was put at a Ki of 0.305 µM. For the molecule `c1cc([C@H]2CC[C@H]3CCCCN32)ccc1OCCN1CCCCC1` (racemic) [Example 16, 3-[4-(2-Piperidin-1-yl-ethoxy)-phenyl]-octahydro-indolizine], the inhibition constant Ki came out at 0.0091 µM. In turn, `c1cc([C@H]2CC[C@H]3CCCCN32)ccc1OCCCN1CCCCC1` (racemic) [Example 92, trans-3-(4-(3-Piperidinylpropoxy)phenyl)octahydroindolizine] gave an inhibitory constant (Ki) of 0.0003 µM. Compared with the last molecule, the Ki is about 30-fold lower. The same measure, in the same setting: for `OC(c1ccc(Cl)cc1)c1ccc(C2CCC3CCCCN32)cc1` (mixture of isomers) [Example 123, trans-3-{4-[(4-Chlorophenyl)methan-1-ol]phenyl}octahydroindolizine] the value was 0.803 µM; for `c1cc([C@@H]2CC[C@@H]3CCCCN32)ccc1NCCCN1CCCCC1` (relative stereo) [Example 106, trans-3-[4-(N-3-Piperidylpropylamino)phenyl]octahydroindolizine], 0.0015 µM.

In turn, `N=C1NC(=N)/C(=C/c2ccc([C@H]3CC[C@H]4CCCCN43)cc2)S1` (relative stereo) [Example 46, trans-3-[4-(4-Methylene-1,3-thiazolidine-2,4-diimine)phenyl]octahydroindolizine] had a Ki of 0.33 µM. This Ki is about 220-fold higher than that of the molecule before. The molecule `O=[N+]([O-])c1ccc(Sc2ccc([C@@H]3CCC[C@@H]4CCCN43)cc2)cc1` (racemic) [Example 27, 5-[4-(4-Nitrophenylthio)phenyl]octahydroindolizine] showed a Ki of 0.323 µM. The Ki values of the last two molecules are within 1.5-fold of each other. “trans-3-[4-(Vinylsulfonylamino)phenyl]octahydroindolizine [Example 119]”: the inhibition constant (Ki) is > 5 µM. As to `c1cc(Oc2ccc([C@H]3CC[C@H]4CCCCN43)cc2)ccn1` (racemic) [Example 76, trans-3-[4-(4-Pyridyloxy)phenyl]octahydroindolizine], the Ki was 0.077 µM.

In the case of `CN1CCCCC1CCOc1ccc([C@H]2CC[C@H]3CCCCN32)cc1` (mixture of isomers) [Example 87, trans-3-{4-[2,2′-(N-Methylpiperidinyl)ethoxy]phenyl}octahydroindolizine], the Ki amounted to 0.007 µM. Still for that read-out and setting: the figure for `c1cc([C@@H]2CCC[C@@H]3CCCN32)ccc1OCCCCN1CCCCC1` (racemic) [Example 62] is 0.0007 µM.

As to `Brc1ccc([C@H]2CC[C@H]3CCCCN32)cc1` (racemic) [Example 1, trans-3-(4-bromophenyl)octahydroindolizine], the affinity, expressed as Ki, was 0.325 µM. On the same count and under the same terms, for `c1cc([C@H]2CC[C@H]3CCCCN32)ccc1OCCC1CCCCN1` (stereo partly drawn) [Example 86, trans-3-[4-(2,2′-piperidinylethoxy)phenyl]octahydroindolizine] the value was 0.09 µM; for `O=C(CCN1CCCCC1)Nc1ccc([C@@H]2CC[C@@H]3CCCCN32)cc1` (relative stereo) [Example 105, trans-3-[4-(N-3-Piperidinylpropanamido)phenyl]octahydroindolizine], 0.01 µM. In turn, `CN(C)c1ccc([C@@H]2CC[C@@H]3CCCCN32)cc1` (relative stereo) [Example 96, trans-3-(4-(N,N-Dimethylamino)phenyl)octahydroindolizine] came in with a Ki of 0.38 µM. On the same count and under the same terms, the figure for `O=C(O)c1ccc(Sc2ccc([C@H]3CC[C@H]4CCCCN43)cc2)cc1` (racemic) [Example 42, tran-3-[4-(4-Carboxylicphenylthio)phenyl]octahydroindolizine] is 0.021 µM; for `c1cc(Sc2ccc([C@@H]3CC[C@@H]4CCCCN43)cc2)ccn1` [Example 138, (S, S)-Octahydro-3-[4-(4-pyridinylthio)phenyl]indolizine] it is 0.1 µM; for `O=[N+]([O-])c1ccc(Oc2ccc([C@H]3CC[C@H]4CCCCN43)cc2)cc1` (racemic) [Example 77, trans-3-[4-(4-Nitrophenoxy)phenyl]octahydroindolizine] it is 1.56 µM. On to `c1cc(Sc2ccc(C3CCC4CCCCN43)cc2)ccn1` (stereo not shown) [Example 136, Octahydro-3-[4-(4-pyridinylthio)phenyl]indolizine], for which the inhibition constant (Ki) is 0.0075 µM. On the same count and under the same terms, the figure for `O=C(CCCN1CCCCC1)Nc1ccc([C@@H]2CC[C@@H]3CCCCN32)cc1` (relative stereo) [Example 111, trans-3-[4-(N-4-Piperidylbutanamido)phenyl]octahydroindolizine] is 0.003 µM; for `OC(c1ccncc1)c1ccc([C@H]2CC[C@H]3CCCCN32)cc1` (stereo partly drawn) [Example 24, trans-3-[4-(4-Pyridylmethan-1-ol)phenyl]octahydroindolizine] it is 0.082 µM. Same read-out and setting: the figure for `CS(=O)(=O)Nc1ccc(Sc2ccc([C@@H]3CCC[C@@H]4CCCN43)cc2)cc1` (racemic) [Example 41, 5-[4-(4-Methanesulfonaminophenylthio)phenyl]octahydroindolizine] is 0.075 µM; for `N=C(N)N1CCCCC1CCOc1ccc([C@H]2CC[C@H]3CCCCN32)cc1` (mixture of isomers) [Example 90, trans-3-{4-[2,2′-(N-Amidinopiperidinyl)ethoxy]phenyl}octahydroindolizine] it is 0.08 µM; for `c1cc([C@@H]2CC[C@@H]3CCCCN32)ccc1NC1CCNCC1` (relative stereo) [Example 101, trans-3-[4-(4-Piperidinylamino)phenyl]octahydroindolizine] it is 0.314 µM. The same measure, in the same setting: for `CN(CCCN1CCCCC1)c1ccc([C@@H]2CC[C@@H]3CCCCN32)cc1` (relative stereo) [Example 110, trans-3-[4-(N-Methyl-N-3-piperidylpropylamino)phenyl]octahydroindolizine] the value was 0.002 µM; for `Oc1ccc([C@@H]2CCC[C@@H]3CCCN32)cc1` (racemic) [Example 60, 5-(4-Hydroxyphenyl)octahydroindolizine], 1.4 µM.

Staying with this experiment, now noted: [3H]-N-methylhistamine binding; value printed under example heading without unit.
For the molecule `O/N=C\c1ccsc1-c1ccc([C@H]2CC[C@H]3CCCCN32)cc1` (racemic) [Example 54, tran-3-[4-(3-hydroxyiminomethylthienyl)phenyl]octahydroindolizine], affinity was put at a Ki of 1.48 µM.

For the origin of these results see patent US20050288323A1, “Octahydro-indolizine and quinolizine and hexahydro-pyrrolizine” (priority 2000, published 2005).
